{"source": "patent US20260242739A1", "about": "“ROLE OF HEPATOCYTE-DERIVED EXTRACELLULAR MATRIX AND COAGULATION FACTORS FOR THE FATE RESTORATION AND MAINTENANCE OF HUMAN HEPATOCYTES” (UNIVERSITY OF SOUTHERN CALIFORNIA, priority 2023, published 2026)", "test_system": "HLCM-HHs", "assay_type": "cell-based, human", "conditions": "7 days", "procedure": "As described in our previous publication (Tateno 2015), humanized liver chimeric mice (HLCM) were generated through xenotransplantation of cryopreserved or freshly isolated primary human hepatocytes (Lot:JFC, BioIVT, NY, US) into severe […] immune deficient (SCID) mice carrying a albumin enhancer/promoter-driven transgene (cDNA), urokinase type plasminogen activator, namely cDNA-uPA Tg/SCID). HLCM with blood human albumin level higher than 10 mg/mL were used for human hepatocyte isolation with two-step collagenase perfusion. The freshly isolated HLCM derived human hepatocytes (HLCM-HH) were plated on type I collagen coated culture dishes (BioCoat, Corning, NY, USA) at 1.05×10^5 cells/cm^2. […]\nTotal RNA was extracted with Zymo-Quick RNA micro kit (Zymo Research, CA, USA) according to the provider's protocol. […] Real-time quantitative PCR was performed with PowerUp SYBR Green Master Mix (ThermoFisher Scientific, MA, USA) and QuantStudio 5 systems (ThermoFisher Scientific) using human specific primer sets summarized in the Table 4. Relative gene expression levels were analyzed with the Delta-Dleta Ct method."}
{"substance": "Fibrinogen", "values": [{"measurement": "expression of cholangiocyte/liver progenitor cell markers, TGFB2 and ANKRD1", "setting": "INVITROGRO HI (IH) and HCM media with or without fibrinogen 50 μg/mL", "value": "significantly inhibited"}, {"measurement": "expressions of cholangiocyte/liver progenitor cell markers (TGFB1, TGFB2, ANKRD1, KRT19)", "setting": "supplemented to fresh dHCGM at 50 μg/mL, vs dHCGM alone, qPCR", "value": "significantly inhibited"}]}
